The test concerns the target T1, Human Vanilloid Receptor 1 (Homo sapiens, UniProt Q8NER1).
T1 construct: expressed in transfected cells; host or cells: HEK 293
The test is described as follows: Human VR1 functional assay using FLIPR, Protocol 1. Format: cell-based. As to conditions: for inhibition at 9 µM: HEK293, 9 uM, inhibition of capsaicin (EC80)-induced calcium response, HEK 293 cells transfected with hVR1, read-out: h % I (9 uM); for IC50: decreased capsaicin (EC80)-induced calcium response, HEK 293 hVR1, read-out: h IC50. The procedure: The functional activity of the test compounds was determined by measuring changes in intracellular calcium concentration using FLIPR™ Calcium-3 Assay Kit and FLIPR™ technology.
HEK 293 cells transfected with Human Vanilloid Receptor 1 were maintained at 37° C. and 5% CO2 in: Dulbecco's Modification of Eagle's Medium (high glucose, L-glutamine, pyridoxine HCl, No sodium pyruvate), 10% FBS, 1× Penicillin-Streptomycin-Amphotericin B, 200 ug/mL zeocin. Approximately 24 hours prior to assay, 30,000 cells/well were plated onto a 384-well black clear bottom poly-D-lysine-coated assay plate with a well volume of 25 µL using Titertek Multidrop.
On the day of the assay, the medium was dumped and 50 μL 1× dye were loaded using Multidrop. Plates were incubated with dye at 37° C. for 30 minutes followed by 30 minutes incubation at room temperature. Then the plates were assayed by FLIPR™ with 2 additions: 12.5 μL test compound with 5 minutes data acquisition followed by 12.5 μL capsaicin at the EC80 concentration.
The EC50 values of test compounds were calculated based on a test compound-induced calcium response at the 5-minute time point. The IC50 values of compounds were calculated based on a decreased capsaicin-induced calcium response in the presence of test compound.

T1 sequence (Q8NER1 whole entry): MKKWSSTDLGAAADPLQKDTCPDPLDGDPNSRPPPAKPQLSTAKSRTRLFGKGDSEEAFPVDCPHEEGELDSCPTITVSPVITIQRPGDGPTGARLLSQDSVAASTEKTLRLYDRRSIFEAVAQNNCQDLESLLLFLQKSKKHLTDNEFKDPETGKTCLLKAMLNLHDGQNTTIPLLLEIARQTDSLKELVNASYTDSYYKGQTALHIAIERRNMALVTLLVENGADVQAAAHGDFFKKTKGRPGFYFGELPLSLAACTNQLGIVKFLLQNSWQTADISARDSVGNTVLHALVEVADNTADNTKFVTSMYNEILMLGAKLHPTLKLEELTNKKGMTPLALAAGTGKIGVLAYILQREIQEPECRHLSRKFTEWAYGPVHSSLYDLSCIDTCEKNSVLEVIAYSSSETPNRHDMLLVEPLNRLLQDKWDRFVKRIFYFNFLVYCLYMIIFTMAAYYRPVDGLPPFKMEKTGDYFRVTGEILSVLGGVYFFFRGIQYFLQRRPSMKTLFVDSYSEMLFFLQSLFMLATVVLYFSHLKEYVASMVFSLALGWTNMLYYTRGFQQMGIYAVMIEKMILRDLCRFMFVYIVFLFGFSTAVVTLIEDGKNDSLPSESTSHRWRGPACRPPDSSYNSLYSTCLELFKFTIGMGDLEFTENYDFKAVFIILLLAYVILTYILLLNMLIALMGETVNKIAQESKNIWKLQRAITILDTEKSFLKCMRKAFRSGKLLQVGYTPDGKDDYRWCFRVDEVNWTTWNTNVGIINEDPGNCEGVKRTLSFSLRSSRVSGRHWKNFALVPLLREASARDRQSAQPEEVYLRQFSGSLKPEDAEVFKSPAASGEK

For the compound `O=C(Nc1ncnc2ccccc12)C1CCN(c2cccc(C(F)(F)F)c2)CC1` [Example 39, 1-(3-Trifluoromethyl-phenyl)-piperidine-4-carboxylic acid quinazolin-4-ylamide], the inhibition at 9 µM was 3.5%. Same read-out and setting: the figure for `Cc1nc2ccc(NC(=O)C3CCN(c4cccc(C(F)(F)F)c4)CC3)nc2nc1C` [Example 40, 1-(3-Trifluoromethyl-phenyl)-piperidine-4-carboxylic acid (2,3-dimethyl-pyrido[2,3-b]pyrazin-6-yl)-amide] is 11.5%.

`Cc1cc(C)c2c(NC(=O)C3CCN(c4cccc(C(F)(F)F)c4)CC3)csc2n1` [Example 41, 1-(3-Trifluoromethyl-phenyl)-piperidine-4-carboxylic acid (4,6-dimethyl-thieno[2,3-b]pyridin-3-yl)-amide]: the inhibition at 9 µM is 12%.

Turning to `COc1ccc(-c2cnc(NC(=O)C3CCN(c4cccc(C(F)(F)F)c4)CC3)nc2C)cc1OC` [Example 42, 1-(3-Trifluoromethyl-phenyl)-piperidine-4-carboxylic acid [5-(3,4-dimethoxy-phenyl)-4-methyl-pyrimidin-2-yl]-amide], the inhibition at 9 µM turned out to be 11%. Regarding `Cc1cc(Oc2ccccc2)nc(NC(=O)C2CCN(c3cccc(C(F)(F)F)c3)CC2)n1` [Example 43, 1-(3-Trifluoromethyl-phenyl)-piperidine-4-carboxylic acid (4-methyl-6-phenoxy-pyrimidin-2-yl)-amide], the inhibition at 9 µM was determined as 10%. On to `O=C1COc2cc(NC(=O)C3CCN(c4cccc(C(F)(F)F)c4)CC3)ccc2N1` [Example 44, 1-(3-Trifluoromethyl-phenyl)-piperidine-4-carboxylic acid (3-oxo-3,4-dihydro-2H-benzo[1,4]oxazin-7-yl)-amide], for which the inhibition at 9 µM was 33%.

As to `CNc1ccc2ncncc2c1NC(=O)C1CCN(c2cccc(C(F)(F)F)c2)CC1` [Example 45, 1-(3-Trifluoromethyl-phenyl)-piperidine-4-carboxylic acid (6-methylamino-quinazolin-5-yl)-amide], the inhibition at 9 µM worked out at 5%. By IC50 is commonly meant the midpoint of a concentration-inhibition curve. In the case of `CC(=O)N1CCc2c(NC(=O)C3CCN(c4cccc(C(F)(F)F)c4)CC3)cccc21` [Example 46, 1-(3-Trifluoromethyl-phenyl)-piperidine-4-carboxylic acid (1-acetyl-2,3-dihydro-1H-indol-4-yl)-amide], the inhibition at 9 µM was 61.4% and the IC50 is 1200 nM. For `O=C(Nc1cc(-c2ccco2)n[nH]1)C1CCN(c2cccc(C(F)(F)F)c2)CC1` [Example 47, 1-(3-Trifluoromethyl-phenyl)-piperidine-4-carboxylic acid (5-furan-2-yl-2H-pyrazol-3-yl)-amide], the inhibition at 9 µM stood at 12%. Take `O=C(Nc1cc(-c2cccs2)n[nH]1)C1CCN(c2cccc(C(F)(F)F)c2)CC1` [Example 48, 1-(3-Trifluoromethyl-phenyl)-piperidine-4-carboxylic acid (5-thiophen-2-yl-2H-pyrazol-3-yl)-amide]: the inhibition at 9 µM stood at 9.5%. For `Cc1cc(Cl)nnc1NC(=O)C1CCN(c2cccc(C(F)(F)F)c2)CC1` [Example 51, 1-(3-Trifluoromethyl-phenyl)-piperidine-4-carboxylic acid (6-chloro-4-methyl-pyridazin-3-yl)-amide], the inhibition at 9 µM is 8%. With `Cn1cnc2c(N3CCC(C(=O)Nc4cccc5[nH]ccc45)CC3)ncnc21` [Example 54, 1-(9-Methyl-9H-purin-6-yl)-piperidine-4-carboxylic acid (1H-indol-4-yl)-amide], the inhibition at 9 µM stood at 16%. `O=C1COc2ccc(NC(=O)C3CCN(c4ccccc4)CC3)cc2N1` [Example 139, 1-Phenyl-piperidine-4-carboxylic acid (3-oxo-3,4-dihydro-2H-benzo[1,4]oxazin-6-yl)-amide]: the inhibition at 9 µM came to 85% and the IC50 stood at 1810 nM. In the same order, the values of `O=C1COc2ccc(NC(=O)C3CCN(c4cccc(Br)c4)CC3)cc2N1` [Example 149, 1-(3-Bromo-phenyl)-piperidine-4-carboxylic acid (3-oxo-3,4-dihydro-2H-benzo[1,4]oxazin-6-yl)-amide] are 91.3% and 330 nM. As for `COc1cccc(N2CCC(C(=O)Nc3ccc4c(c3)NC(=O)CO4)CC2)c1` [Example 150, 1-(3-Methoxy-phenyl)-piperidine-4-carboxylic acid (3-oxo-3,4-dihydro-2H-benzo[1,4]oxazin-6-yl)-amide], the inhibition at 9 µM was found to be 79.3% and the IC50 stood at 1420 nM. In the same order, the values of `O=C1COc2ccc(NC(=O)C3CCN(c4cc(F)c(F)c(F)c4)CC3)cc2N1` [Example 156, 1-(3,4,5-Trifluoro-phenyl)-piperidine-4-carboxylic acid (3-oxo-3,4-dihydro-2H-benzo[1,4]oxazin-6-yl)-amide] are 93.3% and 60 nM. Regarding `Cc1c(Cl)cccc1N1CCC(C(=O)Nc2ccc3c(c2)NC(=O)CO3)CC1` [Example 157, 1-(3-Chloro-2-methyl-phenyl)-piperidine-4-carboxylic acid (3-oxo-3,4-dihydro-2H-benzo[1,4]oxazin-6-yl)-amide], the inhibition at 9 µM is 90.3% and the IC50 worked out at 100 nM. With `Cc1cccnc1N1CCC(C(=O)Nc2ccc3c(c2)NC(=O)CO3)CC1` [Example 158, 3′-Methyl-3,4,5,6-tetrahydro-2H-[1,2′]bipyridinyl-4-carboxylic acid (3-oxo-3,4-dihydro-2H-benzo[1,4]oxazin-6-yl)-amide], the inhibition at 9 µM is 39%. As to `O=C1COc2ccc(NC(=O)C3CCN(c4nc5ccccc5s4)CC3)cc2N1` [Example 159, 1-Benzothiazol-2-yl-piperidine-4-carboxylic acid (3-oxo-3,4-dihydro-2H-benzo[1,4]oxazin-6-yl)-amide], the inhibition at 9 µM came out at 20.7%. Take `O=C1COc2ccc(NC(=O)C3CCN(c4cccc(F)c4Br)CC3)cc2N1` [Example 160, 1-(2-Bromo-3-fluoro-phenyl)-piperidine-4-carboxylic acid (3-oxo-3,4-dihydro-2H-benzo[1,4]oxazin-6-yl)-amide]: the inhibition at 9 µM came out at 93% and the IC50 turned out to be 130 nM.

On to `O=C1COc2ccc(NC(=O)C3CCN(c4ncccc4[N+](=O)[O-])CC3)cc2N1` [Example 161, 3′-Nitro-3,4,5,6-tetrahydro-2H-[1,2′]bipyridinyl-4-carboxylic acid (3-oxo-3,4-dihydro-2H-benzo[1,4]oxazin-6-yl)-amide], for which the inhibition at 9 µM worked out at 28.7%. On to `N#Cc1c(N2CCC(C(=O)Nc3ccc4c(c3)NC(=O)CO4)CC2)cccc1C(F)(F)F` [Example 162, 1-(2-Cyano-3-trifluoromethyl-phenyl)-piperidine-4-carboxylic acid (3-oxo-3,4-dihydro-2H-benzo[1,4]oxazin-6-yl)-amide], for which the inhibition at 9 µM amounted to 37%. For `N#Cc1ccc(C(F)(F)F)cc1N1CCC(C(=O)Nc2ccc3c(c2)NC(=O)CO3)CC1` [Example 163, 1-(2-Cyano-5-trifluoromethyl-phenyl)-piperidine-4-carboxylic acid (3-oxo-3,4-dihydro-2H-benzo[1,4]oxazin-6-yl)-amide], the inhibition at 9 µM is 19.7%.

The values are drawn from patent publication US20060116368A1, “4-Piperidinecarboxamide modulators of vanilloid VR1 receptor” (priority 2004, published 2006).
